A compilation of properties of binary mixtures (doi:10.1016/j.molliq.2015.08.019)

Assay: xn = mol fraction of the nth substance listed
Conditions: 100 kPa

CN1CCCC1=O + CCCC[n+]1ccn(C)c1.F[B-](F)(F)F
speed of sound (298.15 K, x1 = 1): 1543.8 m/s
speed of sound (303.15 K, x1 = 1): 1524.3 m/s
speed of sound (308.15 K, x1 = 1): 1505 m/s
speed of sound (313.15 K, x1 = 1): 1485.7 m/s
speed of sound (318.15 K, x1 = 1): 1466.7 m/s

CCCC[n+]1ccn(C)c1.F[B-](F)(F)F + CN1CCCC1=O
speed of sound (298.15 K, x2 = 0.4422): 1562.8 m/s
speed of sound (298.15 K, x2 = 0.5097): 1562 m/s
speed of sound (298.15 K, x2 = 0.6155): 1561.2 m/s
speed of sound (298.15 K, x2 = 0.8025): 1559.1 m/s
speed of sound (298.15 K, x2 = 0.9025): 1554.8 m/s
speed of sound (303.15 K, x2 = 0.108): 1552.4 m/s
speed of sound (303.15 K, x2 = 0.2114): 1552.2 m/s
speed of sound (303.15 K, x2 = 0.3061): 1551.5 m/s
speed of sound (303.15 K, x2 = 0.4422): 1549.9 m/s
speed of sound (303.15 K, x2 = 0.5097): 1548.1 m/s
speed of sound (303.15 K, x2 = 0.7054): 1544.1 m/s
speed of sound (303.15 K, x2 = 0.9025): 1536.3 m/s
speed of sound (308.15 K, x2 = 0.2114): 1539.8 m/s
speed of sound (308.15 K, x2 = 0.4422): 1536.6 m/s
speed of sound (308.15 K, x2 = 0.5097): 1534.6 m/s
speed of sound (308.15 K, x2 = 0.6155): 1531.5 m/s
speed of sound (308.15 K, x2 = 0.8025): 1524.7 m/s
speed of sound (308.15 K, x2 = 0.9025): 1518 m/s
speed of sound (313.15 K, x2 = 0.108): 1528.3 m/s
speed of sound (313.15 K, x2 = 0.4422): 1522.7 m/s
speed of sound (313.15 K, x2 = 0.5097): 1520.8 m/s
speed of sound (313.15 K, x2 = 0.8025): 1507 m/s
speed of sound (318.15 K, x2 = 0.108): 1516.4 m/s
speed of sound (318.15 K, x2 = 0.3061): 1512.8 m/s
speed of sound (318.15 K, x2 = 0.4422): 1510.1 m/s
speed of sound (318.15 K, x2 = 0.5097): 1506.8 m/s
speed of sound (318.15 K, x2 = 0.6155): 1501.7 m/s
speed of sound (318.15 K, x2 = 0.7054): 1496.4 m/s
speed of sound (318.15 K, x2 = 0.8025): 1490.4 m/s
speed of sound (318.15 K, x2 = 0.9025): 1482.5 m/s
speed of sound (323.15 K, x2 = 0.2114): 1502.8 m/s
speed of sound (323.15 K, x2 = 0.3061): 1499.9 m/s
speed of sound (323.15 K, x2 = 0.4422): 1496.7 m/s
speed of sound (323.15 K, x2 = 0.5097): 1492.4 m/s
speed of sound (323.15 K, x2 = 0.6155): 1486.5 m/s
speed of sound (323.15 K, x2 = 0.7054): 1480.7 m/s
speed of sound (323.15 K, x2 = 0.8025): 1473.2 m/s
speed of sound (323.15 K, x2 = 0.9025): 1464.1 m/s
